Biological target: T1, human PNPO F48A/E50L/R258L variant (Homo sapiens, UniProt Q9NVS9, E50L/F48A/R258L)
T1 construct: a main form corresponding to the entire protein; made in house; host or cells: E. coli BL21(DE3)
T1 sequence (Q9NVS9 1-261 F48A/E50L/R258L): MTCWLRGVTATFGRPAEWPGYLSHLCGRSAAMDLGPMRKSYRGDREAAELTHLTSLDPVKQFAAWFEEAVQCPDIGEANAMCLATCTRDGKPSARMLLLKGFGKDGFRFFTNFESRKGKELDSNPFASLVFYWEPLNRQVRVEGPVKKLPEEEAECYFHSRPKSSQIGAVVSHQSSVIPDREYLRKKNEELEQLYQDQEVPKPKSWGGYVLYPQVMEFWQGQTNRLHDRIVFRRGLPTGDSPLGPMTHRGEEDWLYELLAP
Experiment: PLP inhibition kinetics of PNP oxidation, triple variant
Type: biochemical
Details: Na-HEPES pH 7.6, 2 μM enzyme, PLP 0–16 μM
Description: This is a general inhibition mechanism that takes into account the possibility of PLP binding to both the active and allosteric sites. PLP binding at the active site gives a complete, competitive inhibition, whereas PLP binding at the allosteric site yields a substrate‐enzyme‐PLP ternary complex that is still catalytically active, although k CAT is reduced by a coefficient whose value is around 0.15. A thorough inhibition kinetic characterization was carried out with the wild type, F48A, F48A/E50L/R258L, and F48A/E50L/H248N/R258L PNPO forms, so as to evaluate the effect of the variations on the allosteric properties of the enzyme. The initial velocity of PNP conversion into PLP was measured in Na‐HEPES buffer (in which PLP is allowed to accumulate) by varying substrate concentration at different, fixed exogenous PLP concentrations, using 2 μM enzyme. A series of saturation curves were obtained that were used to fit the Michaelis–Menten equation (Figure 5), acquiring apparent V MAX and K M values as a function of PLP concentration. […]
FIGURE 5 Characterization of PLP inhibition. Upper panels: The initial velocity of the reaction was measured with 2 μM wild type (a), and the F48A (b), F48A/E50L/R258L (c), and F48A/E50L/H248N/R258L (d) PNPO variants, varying PNP concentration while keeping exogenous PLP fixed at different concentrations (0, 0.25, 0.5, 1, 2, 4, 8, and 16 μM). […]

## Cc1ncc(COP(=O)(O)O)c(C=O)c1O [PLP, pyridoxal 5′‐phosphate]
  type of inhibition of PNP oxidation by PLP: pure competitive inhibition

— publication PMC10804683, “Identification of the pyridoxal 5′‐phosphate allosteric site in human pyridox(am)ine 5′‐phosphate oxidase” (Protein Science : A Publication of the Protein Society, 2024)
